In patent US20240002391A1, “4-ALKOXYPYRROLO[2,1-F][1,2,4]TRIAZINES AND PREPARATION AND USES THEREOF” (BioSplice Therapeutics, Inc., priority 2022, published 2024):
pIC50: −log10 of the molar value.

Target: recombinant DYRK1A kinase (Homo sapiens (Human), UniProt Q13627)
Assay: DYRK1A kinase assay (Ser/Thr 18 peptide Z-lyte FRET)
Type: biochemical
Settings: DYRK1A kinase activity, Z-lyte Ser/Thr 18 peptide, 15 μM ATP; method text calls the value IC50; read-out: EC50 (the source's name)
How it was run: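 IC50 from non-linear fits of percent phosphorylation, derived from coumarin/fluorescein emission ratio after 1 h protease development. Kinase reaction: 1 h room temperature, 15 μM ATP, 4 μM Ser/Thr peptide 18, 0.25 μg/mL recombinant DYRK1A, duplicate 11-point 1:3 dilutions from 10 μM.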

Row | SMILES | pIC50
1 | COc1nc(N[C@H]2CC[C@@](C)(O)CC2)nn2ccc(-c3ccc4nnn(C)c4c3)c12 [Compound 224, cis-4-((4-Methoxy-5-(1-methyl-1H-benzo[d][1,2,3]triazol-6-yl)pyrrolo[2,1-f][1,2,4]triazin-2-yl)amino)-1-methylcyclohexan-1-ol] | 7.95
2 | CNC(=O)[C@]1(C)CC[C@H](Nc2nc(OC)c3c(-c4ccc5nnn(C)c5c4)ccn3n2)CC1 [Compound 225, cis-4-((4-Methoxy-5-(1-methyl-1H-benzo[d][1,2,3]triazol-6-yl)pyrrolo[2,1-f][1,2,4]triazin-2-yl)amino)-N,1-dimethylcyclohexane-1-carboxamide] | 7.93
3 | CNC(=O)C12CC(Nc3nc(OC)c4c(-c5ccc6nnn(C)c6c5)ccn4n3)(C1)C2 [Compound 226, 3-((4-Methoxy-5-(1-methyl-1H-benzo[d][1,2,3]triazol-6-yl)pyrrolo[2,1-f][1,2,4]triazin-2-yl)amino)-N-methylbicyclo[1.1.1]pentane-1-carboxamide] | 8.49
4 | COc1nc(NC2CC3(CCN(C(C)=O)CC3)C2)nn2ccc(-c3ccc4nnn(C)c4c3)c12 [Compound 227, 1-(2-((4-Methoxy-5-(1-methyl-1H-benzo[d][1,2,3]triazol-6-yl)pyrrolo[2,1-f][1,2,4]triazin-2-yl)amino)-7-azaspiro[3.5]nonan-7-yl)ethan-1-one] | 8.44
5 | COc1nc(N[C@@H]2C[C@@H]3CN(C(C)=O)C[C@@H]3C2)nn2ccc(-c3ccc4nnn(C)c4c3)c12 [Compound 228, 1-((3aR,5r,6aS)-5-((4-Methoxy-5-(1-methyl-1H-benzo[d][1,2,3]triazol-6-yl)pyrrolo[2,1-f][1,2,4]triazin-2-yl)amino)hexahydrocyclopenta[c]pyrrol-2(1H)-yl)ethan-1-one] | 8.47
6 | COc1nc(NC2CCC3(CC2)CN(C(C)=O)C3)nn2ccc(-c3ccc4nnn(C)c4c3)c12 [Compound 229, 1-(7-((4-Methoxy-5-(1-methyl-1H-benzo[d][1,2,3]triazol-6-yl)pyrrolo[2,1-f][1,2,4]triazin-2-yl)amino)-2-azaspiro[3.5]nonan-2-yl)ethan-1-one] | 8.72
7 | COc1nc(NC2CCC3(CC2)COC3)nn2ccc(-c3ccc4nnn(C)c4c3)c12 [Compound 230, 4-Methoxy-5-(1-methyl-1H-benzo[d][1,2,3]triazol-6-yl)-N-(2-oxaspiro[3.5]nonan-7-yl)pyrrolo[2,1-f][1,2,4]triazin-2-amine] | 8.38
8 | COc1nc(N[C@H](C)C2CC2)nn2ccc(-c3cnc4nccn4c3)c12 [Compound 231, (R)—N-(1-Cyclopropylethyl)-5-(imidazo[1,2-a]pyrimidin-6-yl)-4-methoxypyrrolo[2,1-f][1,2,4]triazin-2-amine] | 8.14
9 | COc1nc(N[C@H](C)c2ccccc2)nn2ccc(-c3cnc4nccn4c3)c12 [Compound 233, (R)-5-(Imidazo[1,2-a]pyrimidin-6-yl)-4-methoxy-N-(1-phenylethyl)pyrrolo[2,1-f][1,2,4]triazin-2-amine] | 8.17
10 | COc1nc(N[C@H]2C[C@@H](OC)C2)nn2ccc(-c3cnc4nccn4c3)c12 [Compound 236, 5-(Imidazo[1,2-a]pyrimidin-6-yl)-4-methoxy-N-(cis-3-methoxycyclobutyl)pyrrolo[2,1-f][1,2,4]triazin-2-amine] | 9.30
11 | COc1nc(N[C@H]2CC[C@@H](C(F)(F)F)CC2)nn2ccc(-c3cnc4nccn4c3)c12 [Compound 239, 5-(Imidazo[1,2-a]pyrimidin-6-yl)-4-methoxy-N-(cis-4-(trifluoromethyl)cyclohexyl)pyrrolo[2,1-f][1,2,4]triazin-2-amine] | 8.54
12 | COc1nc(N[C@H]2CC[C@H](C(C)(C)O)CC2)nn2ccc(-c3cnc4nccn4c3)c12 [Compound 242, 2-(trans-4-((5-(Imidazo[1,2-a]pyrimidin-6-yl)-4-methoxypyrrolo[2,1-f][1,2,4]triazin-2-yl)amino)cyclohexyl)propan-2-ol] | 8.36
13 | COc1nc(N[C@H]2CC[C@@H](OC)CC2)nn2ccc(-c3cnc4nccn4c3)c12 [Compound 243, 5-(imidazo[1,2-a]pyrimidin-6-yl)-4-methoxy-N-(cis-4-methoxycyclohexyl)pyrrolo[2,1-f][1,2,4]triazin-2-amine] | 8.92
14 | [2H]C([2H])([2H])O[C@H]1CC[C@@H](Nc2nc(OC)c3c(-c4cnc5nccn5c4)ccn3n2)CC1 [Compound 245, 5-(Imidazo[1,2-a]pyrimidin-6-yl)-4-methoxy-N-(cis-4-(methoxy-d3)cyclohexyl)pyrrolo[2,1-f][1,2,4]triazin-2-amine] | 9.15
15 | COc1nc(N[C@H]2CC[C@@H](OC(F)F)CC2)nn2ccc(-c3cnc4nccn4c3)c12 [Compound 250, N-(cis-4-(Difluoromethoxy)cyclohexyl)-5-(imidazo[1,2-a]pyrimidin-6-yl)-4-methoxypyrrolo[2,1-f][1,2,4]triazin-2-amine] | 9.22
16 | COc1nc(N[C@H]2CC[C@@H](OC(F)(F)F)CC2)nn2ccc(-c3cnc4nccn4c3)c12 [Compound 252, 5-(Imidazo[1,2-a]pyrimidin-6-yl)-4-methoxy-N-(cis-4-(trifluoromethoxy)cyclohexyl)pyrrolo[2,1-f][1,2,4]triazin-2-amine] | 8.60
17 | COc1nc(NC2CCC(F)(F)CC2)nn2ccc(-c3cnc4nccn4c3)c12 [Compound 254, N-(4,4-Difluorocyclohexyl)-5-(imidazo[1,2-a]pyrimidin-6-yl)-4-methoxypyrrolo[2,1-f][1,2,4]triazin-2-amine] | 8.74
18 | CN1C[C@H](F)[C@H](Nc2nc(O)c3c(-c4cnc5nccn5c4)ccn3n2)C1 [Compound 261, 2-(((3R,4S)-4-Fluoro-1-methylpyrrolidin-3-yl)amino)-5-(imidazo[1,2-a]pyrimidin-6-yl)pyrrolo[2,1-f][1,2,4]triazin-4-ol] | 6.81
19 | COc1nc(N[C@@H]2CN(C)C[C@@H]2F)nn2ccc(-c3cnc4nccn4c3)c12 [Compound 262, N-((3R,4S)-4-Fluoro-1-methylpyrrolidin-3-yl)-5-(imidazo[1,2-a]pyrimidin-6-yl)-4-methoxypyrrolo[2,1-f][1,2,4]triazin-2-amine] | 8.49
20 | CC(=O)N1C[C@H](F)[C@H](Nc2nc(O)c3c(-c4cnc5nccn5c4)ccn3n2)C1 [Compound 263, 1-((3S,4R)-3-Fluoro-4-((4-hydroxy-5-(imidazo[1,2-a]pyrimidin-6-yl)pyrrolo[2,1-f][1,2,4]triazin-2-yl)amino)pyrrolidin-1-yl)ethan-1-one] | 6.95
21 | COc1nc(N[C@@H]2CN(C(C)=O)C[C@@H]2F)nn2ccc(-c3cnc4nccn4c3)c12 [Compound 264, 1-((3S,4R)-3-Fluoro-4-((5-(imidazo[1,2-a]pyrimidin-6-yl)-4-methoxypyrrolo[2,1-f][1,2,4]triazin-2-yl)amino)pyrrolidin-1-yl)ethan-1-one] | 8.46
22 | Oc1nc(N[C@@H]2CN(C3COC3)C[C@@H]2F)nn2ccc(-c3cnc4nccn4c3)c12 [Compound 265, 2-(((3R,4S)-4-fluoro-1-(oxetan-3-yl)pyrrolidin-3-yl)amino)-5-(imidazo[1,2-a]pyrimidin-6-yl)pyrrolo[2,1-f][1,2,4]triazin-4-ol] | 7.23
23 | COc1nc(N[C@@H]2CN(C3COC3)C[C@@H]2F)nn2ccc(-c3cnc4nccn4c3)c12 [Compound 266, N-((3R,4S)-4-Fluoro-1-(oxetan-3-yl)pyrrolidin-3-yl)-5-(imidazo[1,2-a]pyrimidin-6-yl)-4-methoxypyrrolo[2,1-f][1,2,4]triazin-2-amine] | 8.54
